Results on three compounds are retold here after US20230398080A1, “FLOATING DRUG DELIVERY SYSTEMS COMPRISING CANNABINOIDS” (YISSUM RESEARCH DEVELOPMENT COMP ANY OF THE HEBREW …, priority 2020, published 2023).

A short description of this series: THC-CBD-Metoprolol intra-colon vs oral administration in the freely moving rat model. The conditions noted are these: for absorption through the colon in comparison to PO administration: lipid-based self-nano emulsifying formulation via colonic cannula vs PO, CBD 15 mg/kg, THC 20 or 10 mg/kg.

As for `C=C(C)[C@@H]1CCC(C)=C[C@H]1c1c(O)cc(CCCCC)cc1O` [CBD, cannabidiol], the “absorption through the colon in comparison to PO administration” value is “practically not absorbed through the colon”.

For the compound `COCCc1ccc(OCC(O)CNC(C)C)cc1` (stereo not drawn) [Metoprolol], the “AUC after administration through the colon in comparison to PO administration” value (colonic cannula vs PO, metoprolol 20 or 15 mg/kg) is listed as “approximately 4 fold”.

Regarding `CCCCCc1cc(O)c2c(c1)OC(C)(C)[C@@H]1CCC(C)=C[C@@H]21` [THC, tetrahydrocannabinol], the “absorption through the colon in comparison to PO administration” value is “practically not absorbed through the colon”.
